{"source": "patent US5667809A", "about": "“Continuous fluorochemical microdispersions for the delivery of lipophilic pharmaceutical agents” (priority 1995, dated 1997)", "key": {"[1]": {"conditions": "cited from earlier work"}, "[2]": {"conditions": "intravenous, cited from earlier work"}, "E. coli": {"test_system": "E. coli", "test": "Antibacterial activity, E. coli titer in wells with human lung epithelial cells", "assay_type": "cell-based", "conditions": "saline", "experimental": "The experimental procedure is followed:\na). Prepare a monolayer of normal human lung epithelial cells.\nb). Add 60 μL of E. coli culture into the well with lung epithelial cells on the 96-well plate.\nc). […] Incubate at 37° C. overnight.\nd). Aspirate the cultured mixture and diluted with LB media (1:2).\ne). Take 20 μL of diluted mixture and plate on an LB plate for an initial titration of E. coli. The E. coli plates were incubated at 37° C. overnight.\nf). Various dilutions were made according to the initial titer of each mixture so as to determine the accurate titer in each well. A duplicated set of tests was conducted for each treatment.\ng). The titer of E. coli was calculated by multiplying the number of colonies grown on each plate by a dilution factor for each well tested."}}, "note": "Where two headings read alike, the source gives them in different places."}
{"smiles": "CCCCCC(=O)OCCOCn1cnc2c(=O)[nH]c(N)nc21", "note": "[hexanoyl acyclovir]", "values": [{"measurement": "Log Po/w", "setting": "[1]; pH 7.4", "value": 0.93}, {"measurement": "Octanol/water partition coefficient Po/w", "setting": "[1]; pH 7.4", "value": 8.58}]}
{"smiles": "CC(CN1c2ccccc2Sc2ccccc21)N(C)C", "note": "(stereo not drawn) [promethazine]", "values": [{"measurement": "Log Po/w", "setting": "[1]; in octanol/pH 7.4 isotonic phosphate buffer at 37° C.", "value": 3.10}]}
{"smiles": "Clc1cccc(Cl)c1N=C1NCCN1", "note": "[^3 H-clonidine, clonidine]", "values": [{"measurement": "Log Po/w", "setting": "[1]; octanol/water", "value": 1.4}]}
{"smiles": "CCCCC(CC)COC(=O)c1ccc(N(C)C)cc1", "note": "(stereo not drawn) [^14 C-padimate-o, padimate-o]", "values": [{"measurement": "Log Po/w", "setting": "[1]; octanol/water", "value": 6.6}]}
{"smiles": "CC(C)=CCN1CCC2(C)c3cc(O)ccc3CC1C2C", "note": "(stereo not drawn) [pentazocin]", "values": [{"measurement": "Octanol/water partition coefficient Po/w", "setting": "[1]; in octanol/pH 7.4 isotonic phosphate buffer at 37° C. (footnote a on the Log value)", "value": 150}]}
{"smiles": "CC(=O)O[C@H]1C(=O)[C@@]2(C)[C@H]([C@H](OC(=O)c3ccccc3)[C@]3(O)C[C@H](OC(=O)[C@H](O)[C@@H](NC(=O)c4ccccc4)c4ccccc4)C(C)=C1C3(C)C)[C@]1(OC(C)=O)CO[C@@H]1C[C@@H]2O", "note": "[paclitaxel]", "values": [{"measurement": "systemic toxicities", "setting": "[2]", "value": "cardiac toxicity and neurotoxicity"}, {"measurement": "systemic toxicities", "setting": "[2]; listed as Taxol", "value": "high systemic toxicities"}]}
{"smiles": "c1ccc2cc3ccccc3cc2c1", "note": "[^14 C-anthracene, anthracene]", "values": [{"measurement": "Log Po/w", "setting": "[1]; octanol/water", "value": 4.5}]}
{"smiles": "O=C(O)c1cn(C2CC2)c2cc(N3CCNCC3)c(F)cc2c1=O", "note": "[Ciprofloxacin]", "values": [{"measurement": "E. coli titer", "setting": "E. coli; 0.05 mg/mL", "value": 0, "unit": "colonies/ml"}, {"measurement": "E. coli titer", "setting": "E. coli; 0.1 mg/mL", "value": 0, "unit": "colonies/ml"}, {"measurement": "E. coli titer", "setting": "E. coli; 0.6 mg/mL", "value": 0, "unit": "colonies/ml"}]}
{"smiles": "CCCCC(=O)OCCOCn1cnc2c(=O)[nH]c(N)nc21", "note": "[valeryl acyclovir]", "values": [{"measurement": "Log Po/w", "setting": "[1]; pH 7.4", "value": 0.30}, {"measurement": "Octanol/water partition coefficient Po/w", "setting": "[1]; pH 7.4", "value": 2.01}]}
{"smiles": "CCCCNc1ccc(C(=O)OCCN(C)C)cc1", "note": "[tetracaine]", "values": [{"measurement": "Log Po/w", "setting": "[1]; octanol/water", "value": 1.90}]}
